Reference: ChEMBL document CHEMBL1123274, “Azasteroids: structure-activity relationships for inhibition of 5 alpha-reductase and of androgen receptor binding” (J Med Chem, 1986)

Molecular target: T1, Androgen receptor (Rattus norvegicus, UniProt P15207)
T1 sequence (P15207 whole entry): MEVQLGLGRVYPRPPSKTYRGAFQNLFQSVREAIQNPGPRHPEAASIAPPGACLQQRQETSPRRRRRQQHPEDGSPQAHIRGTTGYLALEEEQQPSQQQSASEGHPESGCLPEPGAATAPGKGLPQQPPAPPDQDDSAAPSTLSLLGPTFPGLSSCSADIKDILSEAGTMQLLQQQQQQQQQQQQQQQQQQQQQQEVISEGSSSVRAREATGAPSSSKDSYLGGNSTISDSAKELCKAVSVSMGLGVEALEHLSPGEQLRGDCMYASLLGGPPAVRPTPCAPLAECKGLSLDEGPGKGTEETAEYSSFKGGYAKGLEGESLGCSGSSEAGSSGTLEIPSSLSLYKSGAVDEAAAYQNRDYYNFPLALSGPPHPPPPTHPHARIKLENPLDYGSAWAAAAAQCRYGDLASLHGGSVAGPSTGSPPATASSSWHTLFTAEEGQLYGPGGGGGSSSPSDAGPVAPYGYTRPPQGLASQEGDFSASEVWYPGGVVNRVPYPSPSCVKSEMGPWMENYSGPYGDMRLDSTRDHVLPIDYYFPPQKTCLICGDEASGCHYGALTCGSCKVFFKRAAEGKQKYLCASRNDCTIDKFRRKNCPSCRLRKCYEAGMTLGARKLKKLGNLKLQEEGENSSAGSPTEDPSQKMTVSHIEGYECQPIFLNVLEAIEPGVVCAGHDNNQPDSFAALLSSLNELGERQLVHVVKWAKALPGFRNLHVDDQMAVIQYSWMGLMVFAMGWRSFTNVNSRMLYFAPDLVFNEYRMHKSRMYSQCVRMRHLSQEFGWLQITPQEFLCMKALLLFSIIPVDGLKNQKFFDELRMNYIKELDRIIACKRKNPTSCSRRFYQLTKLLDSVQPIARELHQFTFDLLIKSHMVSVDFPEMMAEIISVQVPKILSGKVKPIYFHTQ
Assay: In vitro antagonist activity against rat prostatic androgen receptor (AR)

| IC50 | Compound |
| --- | --- |
| 66 nM | CCOC(=O)C[C@H]1CC[C@H]2[C@@H]3CC[C@H]4N(C)C(=O)CC[C@]4(C)[C@H]3CC[C@]12C |
| 960 nM | COC(=O)C(C)[C@H]1CC[C@H]2[C@@H]3CCC4N(C)C(=O)CC[C@]4(C)[C@H]3CC[C@]12C (stereo partly drawn) |
| > 10000 nM | CCN(CC)C(=O)[C@H]1CC[C@H]2[C@@H]3CC[C@H]4N(C)C(=O)C[C@H](C#N)[C@]4(C)[C@H]3CC[C@]12C |
| 130 nM | CCCCCCCCNC(=O)[C@H]1CC[C@H]2[C@@H]3CCC4N(C)C(=O)CC[C@]4(C)[C@H]3CC[C@]12C (stereo partly drawn) |
| 3200 nM | COC(=O)[C@H]1CC[C@H]2[C@@H]3CC[C@H]4NC(=O)C=C[C@]4(C)[C@H]3CC[C@]12C |
| 150 nM | CN1C(=O)CC[C@H]2C1=CC[C@@H]1[C@@H]2CC[C@@]2(C)[C@H]1CC[C@@]21CCCO1 (stereo in doubt; 75) |
| 240 nM | CN1C(=O)CC[C@H]2C1=CC[C@@H]1[C@@H]2CC[C@@]2(C)[C@H]1CC[C@@]21CCCO1 (stereo in doubt; 74) |
| 32000 nM | CCN(CC)C(=O)[C@H]1CC[C@H]2[C@@H]3CC[C@H]4N(CC)C(=O)CC[C@]4(C)[C@H]3CC[C@]12C |
| > 10000 nM | CCN(CC)C(=O)[C@H]1CC[C@H]2[C@@H]3CC[C@H]4NC(=O)CCC[C@]4(C)[C@H]3CC[C@]12C |
| 270 nM | COC(=O)C(C)[C@H]1CC[C@H]2[C@@H]3CCC4N(C)C(=O)C=C[C@]4(C)[C@H]3CC[C@]12C (stereo partly drawn) |
| 10000 nM | CC(C)N(C(=O)[C@H]1CC[C@H]2[C@@H]3CC=C4N(C)C(=O)CC[C@]4(C)[C@H]3CC[C@]12C)C(C)C |
| > 10000 nM | C[C@]12C=CC(=O)N[C@@H]1CC[C@@H]1[C@@H]2CC[C@]2(C)[C@@H](C(N)=O)CC[C@@H]12 |
| > 10000 nM | CCN(CC)C(=O)[C@H]1CC[C@H]2[C@@H]3CC[C@H]4N(C)C(=O)[C@@H](OC)C[C@]4(C)[C@H]3CC[C@]12C |
| > 10000 nM | CCN(CC)C(=O)[C@H]1CC[C@H]2[C@@H]3CC[C@H]4N(C)C(=O)[C@H](OC)C[C@]4(C)[C@H]3CC[C@]12C |
| 7100 nM | CCN(CC)C(=O)[C@H]1CCC[C@H]2[C@@H]3CC[C@H]4N(C)C(=O)CC[C@]4(C)[C@H]3CC[C@]12C |
| 710 nM | CCN(CC)C(=O)[C@H]1CC[C@H]2[C@@H]3CC[C@H]4N(C)C(=O)[C@@H]5O[C@@H]5[C@]4(C)[C@H]3CC[C@]12C |
| > 10000 nM | C[C@]12CC[C@H]3[C@@H](CCC4NC(=O)C=C[C@@]43C)[C@@H]1CC[C@@H]2C(=O)Sc1ccccn1 (stereo partly drawn) |
| > 10000 nM | CCNC(=O)[C@H]1CC[C@H]2[C@@H]3CC[C@H]4NC(=O)C=C[C@]4(C)[C@H]3CC[C@]12C |
| 340 nM | CCCCCCCCNC(=O)[C@H]1CC[C@H]2[C@@H]3CCC4N(C)C(=O)C=C[C@]4(C)[C@H]3CC[C@]12C (stereo partly drawn) |

| IC50 | Compound |
| --- | --- |
| 15000 nM | C[C@]12CC[C@H]3[C@@H](CCC4NC(=O)CC[C@@]43C)[C@@H]1CC[C@@H]2C(=O)c1ccc[nH]1 (stereo partly drawn) |
| > 100000 nM | CC(C(=O)O)[C@H]1CC[C@H]2[C@@H]3CCC4NC(=O)C=C[C@]4(C)[C@H]3CC[C@]12C (stereo partly drawn) |
| 83 nM | CCNC(=O)[C@H]1CC[C@H]2[C@@H]3CC[C@H]4N(C)C(=O)C=C[C@]4(C)[C@H]3CC[C@]12C |
| 2000 nM | CN1C(=O)CC[C@H]2C1CC[C@@H]1[C@@H]2CC[C@@]2(C)[C@H]1CC[C@@]21CCCO1 (stereo partly drawn) |
| 1800 nM | CCN(CC)C(=O)[C@H]1CC[C@H]2[C@@H]3CC[C@H]4N(C)C(=O)[C@@H](F)C[C@]4(C)[C@H]3CC[C@]12C |
| 580 nM | CN1C(=O)CC[C@@]2(C)C1CC[C@H]1[C@@H]3CC[C@H](C(=O)C=[N+]=[N-])[C@@]3(C)CC[C@@H]12 (stereo partly drawn) |
| > 100000 nM | COC(=O)C(C)[C@H]1CC[C@H]2[C@@H]3CCC4NC(=O)C=C[C@]4(C)[C@H]3CC[C@]12C (stereo partly drawn) |
| > 100000 nM | C[C@]12CC[C@H]3[C@@H](CCC4NC(=O)CC[C@@]43C)[C@@H]1CC[C@@H]2C(N)=O (stereo partly drawn) |
| > 100000 nM | CC(C)CC(=O)[C@H]1CC[C@H]2[C@@H]3CCC4NC(=O)CC[C@]4(C)[C@H]3CC[C@]12C (stereo partly drawn) |
| 6400 nM | CC(C)N(C(=O)[C@H]1CC[C@H]2[C@@H]3CC=C4N(C)C(=O)C=C[C@]4(C)[C@H]3CC[C@]12C)C(C)C |
| > 100000 nM | CC(C(=O)O)[C@H]1CC[C@H]2[C@@H]3CCC4N(C)C(=O)C=C[C@]4(C)[C@H]3CC[C@]12C (stereo partly drawn) |
| 940 nM | CN1C(=O)CC[C@@]2(C)C1CC[C@H]1[C@@H]3CC[C@H](C(=O)NC(C)(C)CO)[C@@]3(C)CC[C@@H]12 (stereo partly drawn) |
| > 100000 nM | CC(C)CC(=O)[C@H]1CC[C@H]2[C@@H]3CCC4NC(=O)C=C[C@]4(C)[C@H]3CC[C@]12C (stereo partly drawn) |
| > 100000 nM | CO[C@H]1CC(=O)NC2CC[C@H]3[C@@H]4CC[C@H](C(N)=O)[C@@]4(C)CC[C@@H]3[C@]21C (stereo partly drawn) |
| 250 nM | CCCCCNC(=O)[C@H]1CC[C@H]2[C@@H]3CCC4N(C)C(=O)CC[C@]4(C)[C@H]3CC[C@]12C (stereo partly drawn) |
| 8000 nM | C[C@]12CC[C@H]3[C@@H](CCC4NC(=O)C=C[C@@]43C)[C@@H]1CC[C@@H]2C(=O)c1ccc[nH]1 (stereo partly drawn) |
| > 100000 nM | CC(C)(C)CC(C)(C)NC(=O)[C@H]1CC[C@H]2[C@@H]3CCC4NC(=O)C=C[C@]4(C)[C@H]3CC[C@]12C (stereo partly drawn) |
| > 100000 nM | CC(C(=O)O)[C@H]1CC[C@H]2[C@@H]3CCC4NC(=O)CC[C@]4(C)[C@H]3CC[C@]12C (stereo partly drawn) |

| Compound | IC50 |
| --- | --- |
| CN1C(=O)CC[C@@]2(C)C1CC[C@H]1[C@@H]3CC[C@H](C(=O)c4ccc[nH]4)[C@@]3(C)CC[C@@H]12 (stereo partly drawn) | 89 nM |
| C[C@]12C=CC(=O)N[C@@H]1CC[C@@H]1[C@@H]2CC[C@]2(C)[C@@H](O)CC[C@@H]12 | 170 nM |
| CN1C(=O)C=C[C@]2(C)[C@H]3CC[C@]4(C)[C@@H](C(N)=O)CC[C@H]4[C@@H]3CC[C@@H]12 | 150 nM |
| CCN(CC)C(=O)[C@H]1CC[C@H]2[C@@H]3CC[C@H]4N(C)C(=O)CCC[C@]4(C)[C@H]3CC[C@]12C | 600 nM |
| COC(=O)[C@H]1CC[C@H]2[C@@H]3CC[C@H]4N(C)C(=O)C=C[C@]4(C)[C@H]3CC[C@]12C | 13 nM |
| CN1C(=O)C=C[C@@]2(C)C1CC[C@H]1[C@@H]3CC[C@H](C(=O)Sc4ccccn4)[C@@]3(C)CC[C@@H]12 (stereo partly drawn) | 100 nM |
| CN1C(=O)C=C[C@]2(C)[C@H]3CC[C@]4(C)[C@@H](O)CC[C@H]4[C@@H]3CC[C@@H]12 | 2.4 nM |
| CN1C(=O)C=C[C@@]2(C)C1CC[C@H]1[C@@H]3CC[C@H](C(=O)c4ccc[nH]4)[C@@]3(C)CC[C@@H]12 (stereo partly drawn) | 15 nM |
| CN1C(=O)CC[C@@]2(C)C1=CC[C@H]1[C@@H]3CC[C@H](O)[C@@]3(C)CC[C@@H]12 | 7.4 nM |
| CC(=O)[C@H]1CC[C@H]2[C@@H]3CCC4=CC(=O)CC[C@]4(C)[C@H]3[C@H](O)C[C@]12C | 330 nM |

Molecular target: T2, Steroid 5-alpha-reductase (Rattus norvegicus, UniProt P24008+P31214)
T2 sequence (P24008 whole entry): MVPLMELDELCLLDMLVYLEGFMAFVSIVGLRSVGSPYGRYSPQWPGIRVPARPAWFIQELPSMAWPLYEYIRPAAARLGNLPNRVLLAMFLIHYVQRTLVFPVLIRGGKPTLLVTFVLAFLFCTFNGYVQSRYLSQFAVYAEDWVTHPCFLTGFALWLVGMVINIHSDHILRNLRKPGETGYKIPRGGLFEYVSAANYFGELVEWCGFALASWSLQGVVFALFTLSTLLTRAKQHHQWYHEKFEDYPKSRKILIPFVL
T2 sequence (P31214 whole entry): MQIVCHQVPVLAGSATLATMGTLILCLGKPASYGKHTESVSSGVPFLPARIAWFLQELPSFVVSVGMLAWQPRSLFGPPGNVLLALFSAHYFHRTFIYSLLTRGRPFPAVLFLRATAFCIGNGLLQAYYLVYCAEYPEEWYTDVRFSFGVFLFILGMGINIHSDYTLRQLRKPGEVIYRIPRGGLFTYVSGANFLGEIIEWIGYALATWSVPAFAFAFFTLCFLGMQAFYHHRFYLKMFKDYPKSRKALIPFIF
Assay: In vitro inhibitory activity against rat prostatic steroid 5-alpha-reductase
Type: protein assay

| IC50 | Ki app | Compound |
| --- | --- | --- |
| 6.8 nM | – | CCOC(=O)C[C@H]1CC[C@H]2[C@@H]3CC[C@H]4N(C)C(=O)CC[C@]4(C)[C@H]3CC[C@]12C |
| 22 nM | – | COC(=O)C(C)[C@H]1CC[C@H]2[C@@H]3CCC4N(C)C(=O)CC[C@]4(C)[C@H]3CC[C@]12C (stereo partly drawn) |
| > 1000 nM | – | CCN(CC)C(=O)[C@H]1CC[C@H]2[C@@H]3CC[C@H]4N(C)C(=O)C[C@H](C#N)[C@]4(C)[C@H]3CC[C@]12C |
| 0.21 nM | – | CCCCCCCCNC(=O)[C@H]1CC[C@H]2[C@@H]3CCC4N(C)C(=O)CC[C@]4(C)[C@H]3CC[C@]12C (stereo partly drawn) |
| 6.8 nM | – | CC(C)(C)NC(=O)[C@H]1CC[C@H]2[C@@H]3CC[C@H]4NC(=O)C=C[C@]4(C)[C@H]3CC[C@]12C [FINASTERIDE] |
| – | 133 nM | COC(=O)[C@H]1CC[C@H]2[C@@H]3CCC4NC(=O)CC[C@]4(C)[C@H]3CC[C@]12C (stereo partly drawn) |
